Measured values from patent US20230225987A1, “TOPICAL PHARMACEUTICAL COMPOSITIONS” (Dermavant Sciences GmbH, priority 2020, published 2023).

Experiments:
[1] = Gao et al., Journal of Polymer Research 2011; cited from earlier work
AhR target gene, cyp1a1 = details: primary human keratinocytes, human or rodent leukocytes
[2] = system: AhR pathway in intestinal human colon adenocarcinoma
[3] = Pre-formulation solubility of DMVT-505 in excipients and solvent systems; type: physicochemical
Description: (§1) Pre-formulation experiments were performed to understand the solubility and stability of the drug in excipients. In relation to drug/excipient compatibility, DMVT-505 was stable for 2 weeks (peak purity>98%) in most excipients at 40° C., with the exception of MCTs and DMI, which may be due to oxidation. Based on the pre-formulation data, aqueous-based solvent systems were designed for WS3. Further formulations were prepared combining suitable phases developed during all the workstreams to obtain formulations to limit the suspected drug partitioning between the aqueous and oil phases (WS2/3/4).
Experiments conducted on the stability of DMVT-505 in individual excipients also allowed for the identification of suitable alternative oil and aqueous phase excipients, and this information was used during the formulation development as the basis of solvent system design.
For WS3, aqueous phases were designed and DMVT-505 solubility in such systems was determined, ahead of formulation development where formulations were sequentially developed, tested and optimized using accelerated physical stability data generated primarily via the LUMiSizer platform. […] Additionally, combined aspects of each workstream (WS2/3/4) were developed with optimal physical stability and to limit the partitioning of the drug between the oil and aqueous phases.
For WS2, oil phase solvent systems were designed and DMVT-505 solubility in such systems was determined, ahead of formulation development where formulations were sequentially developed, tested and optimized using accelerated physical stability data generated primarily via the LUMiSizer platform. […] A number of emulsifiers and surfactant systems (WS4) were screened in order to achieve a formulation which was, theoretically, as stable as CR01. To do this, WS4 formulations were rationally designed, prepared and tested in a similar fashion to the previous workstreams. Additionally, combined aspects of each workstream (WS2/3/4) were developed with optimal physical stability and to limit the partitioning of the drug between the oil and aqueous phases.

[4] = Nonclinical study, subcutaneous 3 mg/kg/day, 13 weeks (NOAEL); type: in vivo; details: Rat
[5] = 28-day twice daily topical administration: toxicokinetics, skin concentrations, dermal irritancy and toxicity (Example 7); parameters: species or system Gottingen minipigs; details: minipig, in vivo
Description: Following dose application on each dosing day, the dose sites were semi-occluded for approximately 20±1 hours from the first dose and then gently washed before the next dose was applied.

[6] = Drug/excipient compatibility, 2 weeks at 40° C.; type: physicochemical; details: 2 weeks in most excipients at 40° C., with the exception of MCTs and DMI
Description: as §1
as §1, with “oil-based” for “aqueous-based”, “WS2. Formulations based on these solvent systems, along with formulations with alternative emulsifiers (WS4) were developed.” for “WS3.”

CC(C)c1c(O)cc(/C=C/c2ccccc2)cc1O [3,5-Dihydroxy-4-isopropyl-trans-stilbene]
sensitivity to oxidation and photo degradation [1]: sensitive to oxidation and photo degradation | expression of the AhR target gene cyp1a1 (AhR target gene, cyp1a1): induce the expression | AhR pathway activity [2]: activator | solubility in diisopropyl adipate [3]: good solubilizer | solubility in mineral oil [3]: non-solvent | solubility in water [3]: not soluble in water | solubility ([3]; in fixed oils, fatty alcohols, glycols and volatile solvent): > 7 % w/w | AUC NOAEL [4]: 99 ng·h/mL | dermal irritation at the dose site [5]: no test article-related dermal irritation | systemic toxicity [5]: no systemic toxicity | peak purity [6]: > 98%
